Test results published in patent US20120015925A1, “NOVEL BENZOTHIAZEPINE AND BENZOTHIEPINE COMPOUNDS” (ASAHI KASEI PHARMA CORPORATION, priority 2004, published 2012).

Columns and labels:
[1] = tested on: rats fed cholesterol food; experiment: Model for hepatic disorder associated with cholestasis (hepatic cell apoptosis): mitotic cells in liver; type: in vivo, rat; settings: oral twice per day, 4 days, total in 10 sites of 200 μm×200 μm, control group 50 ± 13
Description: In the present test example, a model for the hepatic disorder associated with cholestasis was employed with reference to apoptosis induction in hepatic cells in a hypercholesterolemia model described in Am. J. Physiol., 1995, 268, G613-G621.
That is, the food containing 0.4% cholesterol and 0.5% bile acid was given to SD (IGS) strain male rats at 7 to 9 weeks of age for 4 days, and the test compound was orally administered forcibly twice per day everyday from the starting date of cholesterol food feeding (each n=8). As a control, another group (n=8) were merely fed cholesterol food. The blood was exsanguinated from abdominal aorta 3 hours after the drug administration on the final day of the experiment. Then the liver was immediately removed and fixed in 10% neutral buffered formalin solution (brand name: FA-F96, supplied from Kokusan Chemical Co. Ltd.). After fixing, the sample was dehydrated and embedded using a closed type automatic embedding apparatus (brand name: ETP-180B, supplied from Sakura Finetek Japan). […] A total number of mitotic cells in different 10 sites in the range of 200 μm×200 μm on each section was counted.

rats dosed bile acid = experiment: Model for hepatic disorder associated with cholestasis, Protocol B (bile acid without partial ligation): AST, ALT, ALP; type: in vivo, rat; settings: Table 13, Protocol B, 0.1 mg/kg oral twice per day for 3.5 days, N=8, mean±standard error
Description: In the present Test Example, a model for the hepatic disorder caused by partial ligation of the bile duct was employed with reference to Kanno's method (Liver, 43, Suppl(1):A126, 2002).
That is, to the SD (IGS) strain male rats at 7 to 10 weeks of age, the partial ligation of the bile duct was given with opening the abdominal cavity under anesthesia with pentobarbital. Before the operation, the blood was collected from femoral vein, in order to obtain the value before the administration. From the day after the operation, 200 mg/kg of bile acid and the test compound were orally administered forcibly twice per day for 3.5 days (Protocol A). Without giving the partial ligation of the bile duct, 200 mg/kg of bile acid and the test compound were also orally administered forcibly twice per day for 3.5 days (Protocol B). In both cases, the test compound was dissolved or suspended in distilled water or an aqueous solution of 1% HCO 60 (Nippon Chemicals). To the control group, saline was administered. As comparative examples, 25 mg/kg of cholestyramine (supplied from Sigma) or 50 mg/kg of ursodeoxycholic acid (supplied from Mitsubishi Pharma) was administered. For considering the effect of the operation, sham operation (sham group) was performed in some cases. The blood was collected from the abdominal aorta 6 hours after the drug administration on the final day of the experiment. AST (GOT), ALT (GPT) and ALP in the blood were measured using measurement kits (GOT II-HA Test Wako, GPT II-HA Test Wako and Alkaline Phosphor HA Test Wako, all were supplied from Wako Pure Chemical Industries) and using an automatic analyzer (Nitech ANALAYZER SUPER Z818).

ALANINE TRANSPORTER = experiment: In vitro assay using Cos 7 cells for Na+ dependent amino acid transporter ([3H]-alanine uptake); type: cell-based; settings: [3H]-alanine 8 μM, 37° C., 60 minutes, read-out: IC50 (μM) AGAINST ALANINE TRANSPORTER
Experimental: In the present Test Example, in vitro assays of the compounds using Cos 7 cells for various transporters were performed according to the description in JP-H10-505830 A.
That is, 2.5×10^5 cells/well of Cos 7 cells were seeded in a 24-well plate, and after two days, the cells were washed once with the assay buffer, i.e., Hanks buffer containing 25 mM glucose and 10 mM HEPES (pH 7.4). The assay buffer was then replaced with the assay buffer containing the test compound. [^3H]-alanine (brand name: NET-348, Daiich Pure chemical) or [^3H]-leucine (brand name: NET-460, Daiich Pure chemical) or [^3H]-phenylalanine (brand name: MT903, MORAVEK) or [^3H]-methionine (brand name: MT862, MORAVEK) or [^3H]-lysine (brand name: MT909, MORAVEK) or [^3H]-choline (brand name: TRK593, Amersham Biosciences) at a final concentration of 8 μM was added thereto and incubated at 37° C. for 60 minutes so that they were taken into Cos 7 cells. […] Then the radioactivity was measured using the liquid scintillation counter. The inhibitory rate (%) was calculated from the radioactivity in the control in which no test compound had been used and the radioactivity when the test compound at the certain concentration had been used, and the concentration of the compound which inhibited 50% of the transporter activity was calculated.

rat IBAT = biological target: T1, rat IBAT (Rattus norvegicus, UniProt Q62633); experiment: In vitro assay using Cos 7 cells, transiently expressed rat IBAT; type: cell-based; settings: [3H]-taurocholate 8 μM uptake, 37° C., 60 minutes
T1 sequence (Q62633 1-348): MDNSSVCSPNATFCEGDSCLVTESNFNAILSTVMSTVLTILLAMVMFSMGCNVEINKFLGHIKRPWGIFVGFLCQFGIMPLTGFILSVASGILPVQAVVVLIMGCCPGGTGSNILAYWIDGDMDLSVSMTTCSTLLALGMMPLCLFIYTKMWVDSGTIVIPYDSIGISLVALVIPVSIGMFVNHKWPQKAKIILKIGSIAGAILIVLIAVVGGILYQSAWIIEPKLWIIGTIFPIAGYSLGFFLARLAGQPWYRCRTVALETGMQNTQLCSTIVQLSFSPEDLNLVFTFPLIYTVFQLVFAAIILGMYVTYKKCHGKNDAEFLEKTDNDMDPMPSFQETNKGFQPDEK
Experimental: In the present Test Example, an in vitro assay of compounds using Cos 7 cells as to inhibitory activity on transiently expressed human IBAT or rat IBAT transporter was performed according to the method described in Am. J. Physiol., 274, G157-169.
That is, […] cells/well of Cos 7 cells were seeded in a 24-well plate, and after one day, the cells were transfected with 0.3 μg/well of cDNA of human IBAT or rat IBAT using FuGENE6 (supplied from Roche). After culturing for one day after the transfection, the cells were washed once with the assay buffer, i.e., Hanks buffer containing 25 mM glucose and 10 mM HEPES (pH 7.4). The assay buffer was then replaced with the assay buffer containing the test compound. [^3H]-Taurocholate at a final concentration of 8 μM was added thereto and incubated at 37° C. for 60 minutes so that [^3H]-taurocholate was taken into Cos 7 cells by the action of human IBAT or rat IBAT. The cells were washed twice with the assay buffer containing 1 mM taurocholate, and subsequently lysed with 0.2 M NaOH to stop the reaction. The cell lysate was added to 4 mL of liquid scintillation cocktail, which was then thoroughly vortexed. Then the radioactivity was measured using the liquid scintillation counter.

IC50 (rat IBAT) [µM]	Compound	MITOTIC CELLS IN LIVER (AVERAGE ± STANDARD ERROR, n = 8) ([1]; 0.1 mg/kg per administration)	MITOTIC CELLS IN LIVER (AVERAGE ± STANDARD ERROR, n = 8) ([1]; 1 mg/kg per administration)	ALT (rats dosed bile acid; control group 82 ± 17) [IU/L]	AST (rats dosed bile acid; control group 157 ± 35) [IU/L]	ALP (rats dosed bile acid; control group 593 ± 77) [IU/L]	IC50 (ALANINE TRANSPORTER) [µM]
	CCCCC1(CCCC)CS(=O)(=O)c2ccc(N(C)C)cc2C(c2cccc(NC(=S)CCCCC[N+]34CCC(CC3)CC4)c2)N1.[Br-] (stereo not shown) [EXAMPLE 1, 1-{5-[3-(3,3-dibutyl-7-dimethylamino-1,1-dioxo-2,3,4,5-tetrahydro-1,4-benzothiazepine-5-yl)phenylthiocarbamoyl]pentyl}-1-azoniabicyclo[2.2.2]octane bromide]	36 ± 13	28 ± 7	53 ± 6	100 ± 2	453 ± 50	33
0.01	CCCCC1(CCCC)CS(=O)(=O)c2ccc(N(C)C)cc2C(c2cccc(NC(=S)Nc3ccc(C[N+](C)(C)Cc4ccccc4)cc3)c2)N1.[Br-] (stereo not shown) [EXAMPLE 3440]						
